Assay results taken from patent US4097595A, “7-Amino-thiazolyl acetamido cephalosporanic acids” (Roussel Uclaf, priority 1976, dated 1978).
Values after ≈ are worked out from the molar mass of the structure shown. Like-named read-outs stand apart in the source and are kept apart here.

How the values were obtained:
[1] = test system: Escherichia Coli UC 1 261; assay: MIC, dilution method in liquid media, Escherichia Coli UC 1 261; type: cell-based
Protocol: (§1) A series of tubes were prepared with the same quantity of sterile nutrive media and increasing quantities of the test product was distributed to each tube. Then, each tube was seeded with a bacterial strain and after incubation at 37° C for 24 or 48 hours, the inhibition of the growth was determined by transillumination which permitted determination of the minimum inhibitory concentrations (M.I.C.) in μg/ml.

[2] = test system: Klebsiella pneumoniae 52 145; assay: MIC, dilution method in liquid media, Klebsiella pneumoniae 52 145; type: cell-based
Protocol: as §1

[3] = test system: Escherichia Coli UC 1 020; assay: MIC, dilution method in liquid media, Escherichia Coli UC 1 020; type: cell-based; conditions: read-out: MIC
Protocol: as §1

[4] = test system: Proteus mirabilis (indol); assay: MIC, dilution method in liquid media, Proteus mirabilis (indol); type: cell-based
Protocol: as §1

[5] = test system: Streptococcus pyogenes A 561; assay: MIC, dilution method in liquid media, Streptococcus pyogenes A 561; type: cell-based
Protocol: as §1

[6] = test system: Streptococcus faecalis 99 F 74; assay: MIC, dilution method in liquid media, Streptococcus faecalis 99 F 74; type: cell-based; conditions: Enterococcus faecalis
Protocol: as §1

[7] = test system: Staphylococcus aureus ATCC 6 538; assay: MIC, dilution method in liquid media, Staphylococcus aureus ATCC 6 538; type: cell-based
Protocol: as §1

Serratia RG 2 532 = assay: MIC, dilution method in liquid media, Serratia RG 2 532; type: cell-based
Protocol: as §1

[8] = test system: Bacillus subtilis ATCC 6 633; assay: MIC, dilution method in liquid media, Bacillus subtilis ATCC 6 633; type: cell-based
Protocol: as §1

[9] = test system: Staphylococcus aureus UC 1128 (penicillin resistant); assay: MIC, dilution method in liquid media, Staphylococcus aureus UC 1128, penicillin resistant; type: cell-based
Protocol: as §1

Salmonella Typhimurium = assay: MIC, dilution method in liquid media, Salmonella Typhimurium; type: cell-based; conditions: Salmonella enterica, strain 420 (Tables II, IV)
Protocol: as §1

[10] = test system: Staphylococcus aureus 54 146; assay: MIC, dilution method in liquid media, Staphylococcus aureus 54 146; type: cell-based
Protocol: as §1

[11] = test system: Staphylococcus aureus UC 1 061 (penicillin sensible); assay: MIC, dilution method in liquid media, Staphylococcus aureus UC 1061, penicillin sensible; type: cell-based
Protocol: as §1

[12] = test system: Escherichia Coli (T) 0 26 B 6; assay: MIC, dilution method in liquid media, Escherichia Coli (T) 026 B6; type: cell-based
Protocol: as §1

[13] = test system: Escherichia Coli (T) 026B6; assay: Experimental infection with Escherichia Coli (T) 026B6 in mice; type: in vivo; conditions: for Mice living on 8th day: subcutaneous, 1, 5 and 24 hours after infection, control 0/10
Protocol: Again, the activity of the product of Example 2 was tested against experimental infection of Escherichia Coli in mice. Groups of 10 male mice weighing about 23 g were infected with an intraperitoneal injection of 0.5 ml of a 24 hour culture in Pasteur nutritive media of Escherichia Coli (T) 026B6 diluted by 1/6 with distilled water. The test product was administered subcutaneously one hour, five hours and 24 hours after the infection and the mortality was determined during 8 days.

[14] = test system: staphylococcus aureus 54,146; assay: In vivo activity, experimental staphylococcia in mice; conditions: for Mice living after 8th day: subcutaneous, 1, 5 and 24 hours after infection
Protocol: The antibacterial activity of the compound of Example 2 was determined against experimental staphylococcia in mice. Lots of 10 male mice weighing about 21.5 g were infected by intraperitoneal injection of 0.5 ml of a 24 hour culture of staphylococcus aureus 54,146 in Pasteur nutritive broth diluted by 1/5 with distilled water. The test product was administered subcutaneously 1 hour, 5 hours and 24 hours after the infection in different doses.

[15] = test system: Streptococcus hemolyticus; assay: MIC, dilution method in liquid media, Streptococcus hemolyticus; type: cell-based; conditions: Streptococcus pyogenes
Protocol: as §1

[16] = test system: Proteus mirabilis No. A 235; assay: In vivo activity, experimental infection of Proteus mirabilis in mice; conditions: for Mice living on 8th day: subcutaneous, 1, 5 and 24 hours after infection, controls 0/10; for Mortality after 21 h 15: subcutaneous, number of dead of 10 mice, controls 10
Protocol: The product of Example 2 was studied for its effect on an experimental infection of Proteus mirabilis in mice. Groups of 10 male mice weighing about 22.5 g were infected by an intraperitoneal injection of 0.5 ml of a 24 hour culture in Pasteur nutritive media of Proteus mirabilis No. A 235 diluted by 1/4 with distilled water.
The mice received a subcutaneous injection 1 hour, 5 hours and 24 hours after the infection of a quantity of the product of Example 2 and the mortality was noted during 8 days.

Bacillus subtilis = assay: MIC, dilution method in liquid media, Bacillus subtilis; type: cell-based; conditions: read-out: MIC
Protocol: as §1

[17] = test system: Streptococcus faecalis 5 432; assay: MIC, dilution method in liquid media, Streptococcus faecalis 5 432; type: cell-based; conditions: read-out: MIC
Protocol: as §1

[18] = Klebsiella pneumoniae, 52145, 24 h, read-out: MIC
[19] = Staphylococcus aureus, 54146, 24 h, read-out: MIC
[20] = 0.5 mg in each injection, subcutaneous, number of dead of 10 mice
[21] = 0.1 mg in each injection, subcutaneous, number of dead of 10 mice
[22] = 0.25 mg in each injection, subcutaneous, number of dead of 10 mice

What does the source list for `CCC(=O)SCC1=C(C(=O)O)N2C(=O)C(NC(=O)Cc3csc(N)n3)[C@H]2SC1` (stereo partly shown) [Example 6, 7-[2-(2-amino-4-thiazolyl)-acetamido]-3-propionylthiomethyl-ceph-3-eme-4-carboxylic acid]?
MIC ([1]; UC1, 24 h, read-out: MIC): 10 µg/mL (≈ 22.6 µM); MIC ([1]; UC1, 48 h, read-out: MIC): 10 µg/mL (≈ 22.6 µM); MIC [2, 18]: 3 µg/mL (≈ 6.78 µM); MIC ([2]; Klebsiella pneumoniae, 52145, 48 h): 5 µg/mL (≈ 11.3 µM); MIC ([3]; UC1, 24 h): 10 µg/mL (≈ 22.6 µM); MIC ([3]; UC1, 48 h): 10 µg/mL (≈ 22.6 µM); MIC ([4]; 24 H, A 235, read-out: MIC): 10 µg/mL (≈ 22.6 µM); MIC ([4]; 48 h): 20 µg/mL (≈ 45.2 µM); MIC ([5]; A561, 24 h): 0.2 µg/mL (≈ 0.452 µM); MIC ([5]; A561, 48 h): 0.2 µg/mL (≈ 0.452 µM); MIC ([6]; 99F74, 24 h): 20 µg/mL (≈ 45.2 µM); MIC ([6]; 99F74, 48 h, read-out: MIC): 40 µg/mL (≈ 90.4 µM); MIC ([7]; ATCC6, 24 h, read-out: MIC): 0.2 µg/mL (≈ 0.452 µM); MIC ([7]; ATCC6, 48 h): 0.4 µg/mL (≈ 0.904 µM); MIC (Serratia RG 2 532; RG2532, 24 h): 10 µg/mL (≈ 22.6 µM); MIC (Serratia RG 2 532; RG2532, 48 h): 10 µg/mL (≈ 22.6 µM); MIC ([8]; ATCC6, 24 h): 0.1 µg/mL (≈ 0.226 µM); MIC ([8]; ATCC6, 48 h): 0.1 µg/mL (≈ 0.226 µM); MIC ([9]; UC1128, 24 H): 1 µg/mL (≈ 2.26 µM); MIC ([9]; UC1128, 48 H): 1 µg/mL (≈ 2.26 µM); MIC (Salmonella Typhimurium; 24 H): 5 µg/mL (≈ 11.3 µM); MIC (Salmonella Typhimurium; 48 H): 5 µg/mL (≈ 11.3 µM); MIC [10, 19]: 1 µg/mL (≈ 2.26 µM); MIC ([10]; Staphylococcus aureus, 54146, 48 h): 2 µg/mL (≈ 4.52 µM); MIC ([11]; UC1, 24 H, penicillin sensible): 0.6 µg/mL (≈ 1.36 µM); MIC ([11]; UC1, 48 H, penicillin sensible): 0.6 µg/mL (≈ 1.36 µM); MIC ([12]; 24 h): 40 µg/mL (≈ 90.4 µM); MIC ([12]; 48 h): 40 µg/mL (≈ 90.4 µM)

Which MIC ([1]; UC1, 24 h) does the source give for `CC(=O)SCC1=C(C(=O)O)N2C(=O)C(NC(=O)Cc3csc(N)n3)[C@H]2SC1` (stereo partly shown) [Example 2, 7-[2-(2-amino-4-thiazolyl)-acetamido]-3-acetylthiomethyl-ceph-3-eme-4-carboxylic acid] here?
The MIC was 1 µg/mL (≈ 2.33 µM).

And the MIC ([1]; UC1, 48 h)?
Its MIC is 1 µg/mL (≈ 2.33 µM).

What about the MIC [2, 18] of the same molecule?
The MIC was 0.5 µg/mL (≈ 1.17 µM).

And the MIC ([2]; Klebsiella pneumoniae, 52145, 48 h, read-out: MIC)?
Its MIC is 0.5 µg/mL (≈ 1.17 µM).

And the MIC ([3]; UC1, 24 h)?
The MIC was 2 µg/mL (≈ 4.67 µM).

What about the MIC ([3]; UC1, 48 h) of the same molecule?
Its MIC is 5 µg/mL (≈ 11.7 µM).

What about the MIC ([4]; 24 h, read-out: MIC) of the same molecule?
The MIC was 1 µg/mL (≈ 2.33 µM).

And the MIC ([4]; 48 h, read-out: MIC)?
The MIC was 1 µg/mL (≈ 2.33 µM).

What about the “Mice living on 8th day” value ([13]; 0.5 mg in each injection) of the same molecule?
Its value is 0/10.

And the “Mortality at 21 h 15” value [13, 20]?
The value was 6.

And the “Mortality at 24 h 15” value [13, 20]?
Its value is 1.

And the “Mortality at 27 h 45” value [13, 20]?
The value was 1.

And the “Mortality at 45 h 30” value [13, 20]?
The value was 1.

And the “Mortality at 70 h” value [13, 20]?
Its value is 1.

And the “Mice living on 8th day” value ([13]; 1 mg in each injection)?
The value was 9/10.

What about the “Mortality at 30 h 45” value ([13]; 1 mg in each injection, subcutaneous, number of dead of 10 mice) of the same molecule?
The value was 1.

And the “Mice living after 8th day” value ([14]; 0.1 mg in each injection)?
The value was 0/10.

What about the “Mortality after 9 h 45” value [14, 21] of the same molecule?
The value was 1.

What about the “Mortality after 22 h 30” value [14, 21] of the same molecule?
The value was 8.

What about the “Mortality after 29 h” value [14, 21] of the same molecule?
Its value is 1.

And the “Mice living after 8th day” value ([14]; 0.25 mg in each injection)?
The value was 6/10.

And the “Mortality after 22 h 30” value [14, 22]?
The value was 1.

What about the “Mortality after 25 h 30” value [14, 22] of the same molecule?
Its value is 1.

And the “Mortality after 4 d” value [14, 22]?
The value was 1.

And the “Mortality after 5 d” value [14, 22]?
Its value is 1.

And the “Mice living after 8th day” value ([14]; 0.5 mg in each injection)?
Its value is 9/10.

And the “Mortality after 4 d” value [14, 20]?
Its value is 1.

And the “Mice living after 8th day” value ([14]; 0.75 mg in each injection)?
Its value is 10/10.

And the “Mice living after 8th day” value ([14]; 1 mg in each injection)?
Its value is 10/10.

And the MIC ([15]; 24 h)?
The MIC was 0.05 µg/mL (≈ 0.117 µM).

What about the MIC ([15]; 48 H, in bacto Todd Hewitt Broth pH = 7.8, read-out: MIC) of the same molecule?
The MIC was 0.1 µg/mL (≈ 0.233 µM).

And the “Mice living on 8th day” value ([16]; 0.1 mg in each injection)?
The value was 8/10.

And the “Mortality after 21 h 15” value ([16]; 0.1 mg in each injection)?
Its value is 2.

What about the “Mice living on 8th day” value ([16]; 0.25 mg in each injection) of the same molecule?
Its value is 10/10.

And the “Mortality after 21 h 15” value ([16]; 0.25 mg in each injection)?
Its value is 0.

And the “Mice living on 8th day” value ([16]; 0.5 mg in each injection)?
Its value is 10/10.

And the “Mortality after 21 h 15” value ([16]; 0.5 mg in each injection)?
The value was 0.

What about the “Mice living on 8th day” value ([16]; 0.75 mg in each injection) of the same molecule?
Its value is 10/10.

And the “Mortality after 21 h 15” value ([16]; 0.75 mg in each injection)?
The value was 0.

And the MIC ([9]; UC1128, 24 H)?
The MIC was 1 µg/mL (≈ 2.33 µM).

And the MIC ([9]; UC1128, 48 H)?
The MIC was 1 µg/mL (≈ 2.33 µM).

What about the MIC (Bacillus subtilis; 24 h) of the same molecule?
The MIC was 0.1 µg/mL (≈ 0.233 µM).

What about the MIC (Bacillus subtilis; 48 h) of the same molecule?
The MIC was 0.5 µg/mL (≈ 1.17 µM).

And the MIC [10, 19]?
Its MIC is 0.6 µg/mL (≈ 1.4 µM).

And the MIC ([10]; Staphylococcus aureus, 54146, 48 h, read-out: MIC)?
Its MIC is 0.6 µg/mL (≈ 1.4 µM).

And the MIC ([17]; Enterococcus faecalis, 5432, 24 h)?
Its MIC is 5 µg/mL (≈ 11.7 µM).

What about the MIC ([17]; Enterococcus faecalis, 5432, 48 h) of the same molecule?
The MIC was > 40 µg/mL.

What about the MIC ([11]; 24 H, Staphylococcus Oxford UC 1061, penicillin sensible) of the same molecule?
The MIC was 0.5 µg/mL (≈ 1.17 µM).

What about the MIC ([11]; 48 H, Staphylococcus Oxford UC 1061, penicillin sensible) of the same molecule?
Its MIC is 0.5 µg/mL (≈ 1.17 µM).

And the MIC ([12]; 24 h)?
Its MIC is 3 µg/mL (≈ 7 µM).

And the MIC ([12]; 48 h)?
Its MIC is 3 µg/mL (≈ 7 µM).
